Source: patent US6280712A, “Sun screen agents” (Cognis Deutschland GmbH, priority 1997, dated 2001)

Tests used:
Format in all cases: physicochemical
Zeidler spreading value = assay: Zeidler spreading value
Description: in which R^1 and R^2 independently of one another represent linear or branched alkyl and/or alkenyl groups containing 1 to 22 carbon atoms, with the proviso that they contain in all at least 12, preferably 12 to 50 and more preferably 15 to 25 carbon atoms. The compounds are obtained by transesterifying dimethyl or diethyl carbonate, for example, with the corresponding fatty alcohols in known manner. Accordingly, the fatty carbonates may be symmetrical or non-symmetrical. However, carbonates in which R^1 and R^2 are the same and represent C6-16 alkyl groups are preferably used. Transesterification products of dimethyl or diethyl carbonate with octanol, 2-ethylhexyl alcohol, decanol, cetyl alcohol, cetearyl alcohol, stearyl alcohol, isostearyl alcohol, oleyl alcohol, behenyl alcohol and/or erucyl alcohol in the form of their mono- and diesters or technical mixtures and Guerbet alcohols containing 8 to 24 carbon atoms are particularly preferred. […] The dialkyl carbonates may be used in quantities of 1 to 30% by weight, preferably 5 to 20% by weight and more preferably 8 to 10% by weight, based on the composition.

[1] = Dissolving power for UV filters (statement in words); conditions: for dissolving properties for UV filters: general statement; for dissolving power for UV filters: in contrast to other high-spreading oils, for example dialkyl ethers or cyclomethicone
[2] = High-spreading property (statement in words); conditions: general statement
[3] = Volatility of the oil (remark in Table 1); conditions: remark at Zeidler spreading value

Row | Zeidler spreading value (Zeidler spreading value) [mm^2/10 mins] | volatility [3] | Compound | dissolving properties for UV filters [1] | dissolving power for UV filters [1] | spreading [2]
1 | 1600 |  | CCCCCCCCOC(=O)OCCCCCCCC [di-n-octyl carbonate] | excellent dissolving properties for UV filters | distinctly higher dissolving power for UV filters | high-spreading
2 | > 1600 | volatile | Cyclomethicone [reference compound] |  |  | 

Row | Compound | Zeidler spreading value (Zeidler spreading value) [mm^2/10 mins] | volatility [3] | dissolving properties for UV filters [1] | dissolving power for UV filters [1] | spreading [2]
3 | CCCCC(CC)COC(=O)OCC(CC)CCCC (stereo not shown) [di-2-ethylhexyl carbonate] | 1600 |  | excellent dissolving properties for UV filters | distinctly higher dissolving power for UV filters | high-spreading
